Assays:
[1] = system: BTCI; assay: Fluorescence quenching of BTCI by Bk-related peptides; type: binding, Vigna unguiculata; settings: for Binding constant Kb (association) of BTCI in complex with peptide / Stern-Volmer quenching constant KSV of BTCI in complex with peptide: BTCI 25 µM, peptide 25-500 µM; for Stern-Volmer quenching constant KSV of BTCI in complex with peptide: excitation 295 nm, emission at 355 nm
Method: Fluorescence measurements were performed at pH 5.0, 7.4 and 9.0 and 25 °C using the Jasco FP-6500 spectrofluorimeter (Jasco Analytical Instruments) coupled to a Jasco ETC-273T Peltier system (Jasco Analytical Instruments) with water circulation. Both excitation and emission slit were fitted to 5.0 nm and the excitation and emission wavelength were 295 nm and 300–400 nm, respectively. The concentration of BTCI was 25 µM, whereas the concentration of Bk and Bk-related peptides varied from 25 to 500 µM. The BTCI in complex with peptides were investigated by fluorescence quenching as a function of pH. The averages of five fluorescence spectra were recorded and processed by the program Spectra Manager (Jasco Analytical Instruments). The fluorescence emissions were fitted according to the classic Stern-Volmer equation (Equation (2)): F0/F = 1 + KSV[Q] (2) where F and F0 are the fluorescence intensities in the presence and absence of quencher, respectively, KSV is Stern-Volmer constant and Q is the concentration of the quencher.
The binding constants for BTCI, Bk and Bk-related peptides interaction were calculated according to Equation (3): Log[(F0 − F)/F] = LogKb + nLog[Q] (3) where Kb is the binding constant and n is the number of binding sites per BTCI [47].

[2] = system: guinea pig (Cavia porcellus) ileum; assay: Smooth muscle constriction force assay, guinea pig ileum
Method: Male guinea pigs (Cavia porcellus) weighing between 200 and 300 g and fasted for 24 h were euthanized using an overdose of anesthetic at 120 mg/kg (ketamine and xylazine). The protocol was approved by the Committee on the Ethics of Animal Experiments of the Institute of Biology, University of Brasilia (Proc. Number 737402/2008). Segments of 2 cm from the terminal portion of the ileum were removed and washed in Tyrode’s solution (g/L: 8.00 NaCl,0.20 KCl, 0.20 CaCl2, 0.21 MgCl2), and attached to a glass rod that was immersed in a physiological bath chamber with a capacity of 10 mL containing Tyrode solution at 37 °C. In the opposite region, a thread of silk was attached to the F-60 isometric transducer connected to a polygraph (NARCO Bio-Systems, Houston, TX, USA). The bath was kept aerated constantly with carbogen (95% O2 + 5% CO2). Previously, as a control, smooth muscle response was analyzed using Bk from Sigma Aldrich. Experiments were done in triplicate, and constriction force was analyzed by addition of Bk and analogues in the absence or presence of BTCI, in three concentrations: 1, 5 or 10 µM. The hypotensive effects of the complexes were also evaluated in the presence of trypsin or chymotrypsin. After each experiment, the bath solution was exchanged three times in order to remove the drug used. Statistical analysis was carried out using the Paleontological Statistics (PAST) Software Package for Education and Data Analysis. A value of Student’s t-test p < 0.05 was considered to denote a significant difference.

[3] = Cardiovascular effects of infusion of Bk and Bk-related peptides with BTCI or vehicle in anesthetized rats; type: in vivo, male Wistar rats; settings: for aortic vasodilation (change in AVC) / change in mean arterial pressure (MAP) / renal vasodilation (change in RVC): from the baseline value, mean ± SEM, 6 experiments
Method: All experiments were conducted on adult male Wistar rats (280–350 g). They were obtained from the central animal house of the Federal University of Goiás. Experimental procedures were designed with strict adherence to the National Health Institute Guidelines for Care and Use of Laboratory Animals as approved by the Ethics Committee, Federal University of Goiás (034/12).
On the day of experiments, the rats were anesthetized with halothane (2%–3% in 100% O2; Cristália Ltda, Itapira, SP, Brazil) prior to the catheterization of the right femoral vein and artery. After the catheter placement, the rats were removed from the halothane and the anesthesia was maintained with urethane (1.2 g·kg^−1 b.wt., i.v.; Sigma-Aldrich Co.). The trachea was cannulated to reduce airway resistance. The body temperature was kept at 37 ± 0.5 °C with a thermostatically controlled heated table.
Renal blood flow (RBF) and aortic blood flow (ABF) were measured with an ultrasonic transit-time flowmeter (Transonic Systems, Inc., Ithaca, NY, USA). Data were recorded continuously with an analog-to-digital converter (PowerLab 4/25, ML845, AD Instruments, Bella Vista, Australia). Mean arterial pressure (MAP) was determined from the pulsatile signal. Aortic vascular conductance (AVC) and renal vascular conductance (RVC) were calculated by a ratio of ABF and RBF divided by MAP, and were expressed as percentage of baseline. Increasing doses of BTCI (0.3, 3, 30 and 300 µg·kg^−1, i.v.) were infused.
Results are presented as means ± S.E.M. The effects of infusion of Bk, Bk-related peptides and BTCI on cardiovascular parameters were analyzed by one-way ANOVA. […] A value of Student’s t-test p < 0.05 was considered to denote a significant difference.

[4] = peptide 120 µg·kg^−1 + BTCI 3 µg·kg^−1, i.v.
[5] = peptide 120 µg·kg^−1 i.v. + BTCI 3 µg·kg^−1 i.v.
[6] = peptide 120 µg·kg^−1 i.v., without BTCI

## [Val]^1[Thr]^6-bradykinyl-Gln-Ser [Bk2]
[1]; pH 5.0, 25 °C
  binding sites (n) per BTCI molecule: 1.04
  Binding constant Kb (association) of BTCI in complex with peptide: 590 M⁻¹
  Stern-Volmer quenching constant KSV of BTCI in complex with peptide: 425 M⁻¹
[1]; pH 7.4, 25 °C
  binding sites (n) per BTCI molecule: 0.89
  Binding constant Kb (association) of BTCI in complex with peptide: 220 M⁻¹
  Stern-Volmer quenching constant KSV of BTCI in complex with peptide: 509 M⁻¹
[1]; pH 9.0, 25 °C
  binding sites (n) per BTCI molecule: 1.23
  Binding constant Kb (association) of BTCI in complex with peptide: 1810 M⁻¹
  Stern-Volmer quenching constant KSV of BTCI in complex with peptide: 384 M⁻¹
[2]; 10 µM, after activation by trypsin treatment
  contraction force relative to Bk: approximately 1.3 fold
[2]; data not shown
  smooth muscle contraction when pretreated with BTCI and serine proteases: did not induce muscle contraction
[2]; free peptide, 1, 5, 10 µM, 37 °C, triplicate
  smooth muscle contraction: unable to exert their contractive effects
[2]; peptide pretreated with trypsin, 1.0, 5.0, 10.0 µM
  smooth muscle contraction after trypsin pretreatment: induced smooth muscle contraction, in a concentration-responsive manner (Figure 7), and at higher levels than Bk in free state
[3]; [4]
  effect of association with BTCI on aortic vasodilation: potentiated
  effect of association with BTCI on renal vasodilation: potentiated renal
[3]; [5]
  aortic vasodilation (change in AVC): 28% ± 2.6%
  change in mean arterial pressure (MAP): −12 ± 2.7 mmHg
  renal vasodilation (change in RVC): 29% ± 4.9%
[3]; [6]
  aortic vasodilation (change in AVC): 19% ± 2.7%
  change in mean arterial pressure (MAP): −12 ± 1.2 mmHg
  renal vasodilation (change in RVC): 19% ± 3.0%
